Activity calls are given as the source filed them. No cut-off for these calls is given here.
How the values were obtained:
[1] = biological target: T1, Cholinesterase (Homo sapiens, UniProt P06276); test: Pseudo-irreversible inhibition of human serum BChE assessed as enzyme recovery activity at IC50 using diluted compound relative to control; format: cell-free; set-up: scale not given: the % may be the effect or the level left
[2] = biological target: T2, Acetylcholinesterase (Homo sapiens, UniProt P22303); test: Pseudo-irreversible inhibition of human erythrocytes AChE assessed as enzyme recovery activity at 0.1 times IC50 measured at 120 mins using diluted compound relative to control; format: tissue-based; set-up: scale not given: the % may be the effect or the level left; conditions: Erythrocyte
[3] = biological target: T1, Cholinesterase; test: Pseudo-irreversible inhibition of human serum BChE assessed as enzyme recovery activity at 0.1 times IC50 using diluted compound relative to control; format: cell-free; set-up: scale not given: the % may be the effect or the level left
[4] = system: Mus musculus; test: Cognitive enhancing effect in scopolamine-induced Kunming mouse model of memory impairment assessed as effect on total arm entries at 6 mg/kg by Y-maze test; format: functional, organism-based
[5] = system: Mus musculus; test: Reversal of scopolamine-induced Kunming mouse model of memory impairment assessed as spontaneous alteration at 6 mg/kg by Y-maze test (reference value: 41.6 %); format: functional
[6] = biological target: T1, Cholinesterase; test: Pseudo-irreversible inhibition of human serum BChE assessed as enzyme recovery activity at 0.1 times IC50 measured immediately using diluted compound; format: cell-free; set-up: scale not given: the % may be the effect or the level left
[7] = biological target: Amyloid-beta precursor protein (Homo sapiens) (UniProt P05067); test: Inhibition of self-induced amyloid beta (1 to 42) (unknown origin) aggregation at 25 uM by ThT fluorescence assay relative to control
[8] = Antioxidant activity of compound assessed as trolox equivalent antioxidant capacity by ORAC-FL assay; format: functional
[9] = biological target: T3, Acetylcholinesterase (Rattus norvegicus, UniProt P37136); test: Inhibition of rat cortex AChE using acetylthiocholine iodide as substrate measured after 15 mins by Ellman's method; format: tissue-based
T3 sequence (P37136 whole entry): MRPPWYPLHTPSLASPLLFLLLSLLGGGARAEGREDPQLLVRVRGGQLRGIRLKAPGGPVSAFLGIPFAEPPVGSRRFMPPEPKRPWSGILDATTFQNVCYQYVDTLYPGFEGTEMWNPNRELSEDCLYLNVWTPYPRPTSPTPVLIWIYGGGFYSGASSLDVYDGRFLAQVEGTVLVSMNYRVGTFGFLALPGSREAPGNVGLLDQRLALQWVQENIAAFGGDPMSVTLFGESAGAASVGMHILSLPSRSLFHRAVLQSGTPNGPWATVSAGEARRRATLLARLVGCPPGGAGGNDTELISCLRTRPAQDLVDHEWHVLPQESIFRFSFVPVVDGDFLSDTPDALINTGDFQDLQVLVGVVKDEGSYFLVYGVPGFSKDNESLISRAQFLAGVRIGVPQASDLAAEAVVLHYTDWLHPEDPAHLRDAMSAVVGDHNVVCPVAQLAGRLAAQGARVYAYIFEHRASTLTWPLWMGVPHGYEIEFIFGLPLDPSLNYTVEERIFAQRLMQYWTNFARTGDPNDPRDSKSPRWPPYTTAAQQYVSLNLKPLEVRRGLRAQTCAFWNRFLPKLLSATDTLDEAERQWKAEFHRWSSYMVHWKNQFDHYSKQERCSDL

[10] = biological target: Butyrylcholinesterase (Rattus norvegicus, UniProt Q9JKC1); test: Inhibition of rat serum BChE using acetylthiocholine iodide as substrate measured after 15 mins by Ellman's method; format: cell-free
[11] = Disaggregation of Copper-induced amyloid beta (1 to 42) (unknown origin) preformed fibrils measured after 48 hrs by TEM analysis
[12] = Disaggregation of Copper-induced amyloid beta (1 to 42) (unknown origin) preformed fibrils at 25 uM by ThT fluorescence assay relative to control
[13] = Inhibition of copper-induced amyloid beta (1 to 42) (unknown origin) aggregation measured after 24 hrs by TEM analysis
[14] = Inhibition of copper-induced amyloid beta (1 to 42) (unknown origin) aggregation at 25 uM by ThT fluorescence assay relative to control
[15] = biological target: T1, Cholinesterase; test: Inhibition of human serum BChE using acetylthiocholine iodide as substrate measured after 15 mins by Ellman's method; format: cell-free
[16] = biological target: T2, Acetylcholinesterase; test: Inhibition of human erythrocytes AChE using acetylthiocholine iodide as substrate measured after 15 mins by Ellman's method; format: tissue-based, Erythrocyte
[17] = Metal chelating activity assessed as Zn2+-compound complex formation at 37.5 uM in presence of 37.5 uM ZnCl2 by UV-Vis spectrophotometric analysis
[18] = Drug metabolism in human liver microsomes assessed as metabolite formation by UPLC-MS/MS analysis; format: ADME, Microsome
[19] = biological target: Amyloid-beta precursor protein (Homo sapiens) (UniProt P05067); test: Disaggregation of self-induced amyloid beta (1 to 42) (unknown origin) preformed fibrils at 25 uM measured after 48 hrs by TEM analysis
[20] = system: PC-12; test: Cytotoxicity against rat PC-12 cells assessed as reduction in cell viability <= 100 uM measured after 48 hrs by MTT assay; format: cell-based; conditions: pc-12, 48 h
[21] = Metal chelating activity assessed as Cu2+-compound complex formation at 37.5 uM in presence of 37.5 uM CuCl2 by UV-Vis spectroscopic analysis
[22] = biological target: Amyloid-beta precursor protein (Homo sapiens) (UniProt P05067); test: Disaggregation of self-induced amyloid beta (1 to 42) (unknown origin) preformed fibrils at 25 uM by ThT fluorescence assay relative to control
[23] = Cytotoxicity against human L02 cells assessed as cell viability at 50 uM measured after 72 hrs by MTT assay relative to control; format: cell-based; conditions: read-out: Activity
[24] = Metal chelating activity assessed as Al3+-compound complex formation at 37.5 uM in presence of 37.5 uM AlCl3 by UV-Vis spectrophotometric analysis
[25] = Cytotoxicity against human L02 cells assessed as cell viability at 12.5 uM measured after 72 hrs by MTT assay relative to control; format: cell-based; conditions: read-out: Activity
[26] = biological target: Amyloid-beta precursor protein (Homo sapiens) (UniProt P05067); test: Inhibition of self-induced amyloid beta (1 to 42) (unknown origin) aggregation at 25 uM measured after 24 hrs by TEM analysis
[27] = Cytotoxicity against human L02 cells assessed as cell viability at 6.25 uM measured after 72 hrs by MTT assay relative to control; format: cell-based; conditions: read-out: Activity
[28] = Metal chelating activity assessed as Fe2+-compound complex formation at 37.5 uM in presence of 37.5 uM FeSO4 by UV-Vis spectrophotometric analysis
[29] = Drug metabolism in rat intestine assessed as metabolite formation by UPLC-MS/MS analysis; format: ADME, tissue-based
[30] = Permeability of the compound in PBS/EtOH (70:30) at 100 ug/ml by PAMPA-BBB assay; format: ADME; conditions: dose 100 µg/ml, read-out: permeability
[31] = system: L02; test: Hepatoprotective activity H2O2-induced cell injury in human L02 cells assessed as cell viability at 10 uM measured after 48 hrs by MTT assay (reference value: 56.89 %); format: functional; conditions: read-out: Activity
[32] = Cytotoxicity against human L02 cells assessed as cell viability at 25 uM measured after 72 hrs by MTT assay relative to control; format: cell-based; conditions: read-out: Activity
[33] = Drug metabolism in rat liver microsomes assessed as metabolite formation by UPLC-MS/MS analysis; format: ADME, Microsome
[34] = species on record: Danio rerio; test: Antialzheimer activity against 3 dpf zebrafish model of AlCl3-induced AD assessed as motility by measuring change in speed at 8 uM (reference value: 1.05 mm/s); format: functional
[35] = species on record: Danio rerio; test: Antialzheimer activity against 3 dpf zebrafish model of AlCl3-induced AD assessed as change in motility distance at 8 uM (reference value: 5204 mm); format: functional
[36] = biological target: T1, Cholinesterase; test: Pseudo-irreversible inhibition of human serum BChE assessed as enzyme recovery activity at IC50 using undiluted compound relative to control; format: cell-free; set-up: scale not given: the % may be the effect or the level left
[37] = species on record: Danio rerio; test: Antialzheimer activity against 3 dpf zebrafish model of AlCl3-induced AD assessed as efficacy on motility distance at 8 uM relative to control; format: functional
[38] = species on record: Danio rerio; test: Antialzheimer activity against 3 dpf zebrafish model of AlCl3-induced AD assessed as efficacy on speed change at 8 uM relative to control; format: functional
[39] = system: PC-12; test: Neuroprotective activity against H2O2-induced cell injury in rat PC12 cells assessed as cell viability preincubated for 2 hrs followed by H2O2 addition and measured after 24 hrs by MTT assay (reference value: 53.8 %); format: functional; conditions: time 26 hrs
[40] = system: PC-12; test: Neuroprotective activity against H2O2-induced cell injury in rat PC-12 cells assessed as increase in cell viability causing decrease in LDH content preincubated for 2 hrs followed by H2O2 addition and measured after 24 hrs by LDH assay; format: functional, cell-based; conditions: dose 5-10 µM, time 26.0 hrs

Chain of Butyrylcholinesterase (Q9JKC1 whole entry): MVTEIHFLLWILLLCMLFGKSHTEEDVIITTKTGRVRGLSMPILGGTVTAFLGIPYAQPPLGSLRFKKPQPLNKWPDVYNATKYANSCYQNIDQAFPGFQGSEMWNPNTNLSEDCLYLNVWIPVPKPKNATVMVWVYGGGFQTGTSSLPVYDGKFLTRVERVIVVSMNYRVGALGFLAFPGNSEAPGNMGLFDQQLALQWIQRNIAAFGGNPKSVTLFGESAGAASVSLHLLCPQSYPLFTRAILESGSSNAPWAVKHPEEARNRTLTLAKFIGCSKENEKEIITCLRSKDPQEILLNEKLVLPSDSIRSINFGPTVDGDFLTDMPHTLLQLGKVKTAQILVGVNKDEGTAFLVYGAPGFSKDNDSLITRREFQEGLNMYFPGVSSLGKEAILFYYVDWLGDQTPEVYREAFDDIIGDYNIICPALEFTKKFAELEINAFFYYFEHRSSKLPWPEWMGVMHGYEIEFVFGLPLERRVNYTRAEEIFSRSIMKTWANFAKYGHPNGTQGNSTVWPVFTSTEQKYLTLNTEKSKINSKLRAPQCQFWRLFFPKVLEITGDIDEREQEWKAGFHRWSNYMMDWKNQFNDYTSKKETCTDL
T1 sequence (P06276 whole entry): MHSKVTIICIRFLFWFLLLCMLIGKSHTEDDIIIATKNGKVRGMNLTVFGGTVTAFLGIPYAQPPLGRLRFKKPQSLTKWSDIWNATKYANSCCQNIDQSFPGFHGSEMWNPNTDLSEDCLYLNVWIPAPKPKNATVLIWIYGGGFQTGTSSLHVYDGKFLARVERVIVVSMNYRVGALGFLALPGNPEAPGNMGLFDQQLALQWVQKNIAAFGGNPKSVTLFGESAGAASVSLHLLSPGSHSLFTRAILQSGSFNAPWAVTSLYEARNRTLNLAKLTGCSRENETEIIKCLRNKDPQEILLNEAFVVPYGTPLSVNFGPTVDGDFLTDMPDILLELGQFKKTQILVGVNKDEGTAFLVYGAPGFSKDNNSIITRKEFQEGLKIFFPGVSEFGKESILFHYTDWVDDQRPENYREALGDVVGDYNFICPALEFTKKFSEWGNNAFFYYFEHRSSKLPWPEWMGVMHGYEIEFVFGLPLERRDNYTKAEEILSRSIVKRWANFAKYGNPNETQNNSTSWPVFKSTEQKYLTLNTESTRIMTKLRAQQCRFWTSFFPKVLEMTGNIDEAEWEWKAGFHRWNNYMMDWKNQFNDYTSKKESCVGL
Chain of Amyloid-beta precursor protein (Homo sapiens) (P05067 whole entry): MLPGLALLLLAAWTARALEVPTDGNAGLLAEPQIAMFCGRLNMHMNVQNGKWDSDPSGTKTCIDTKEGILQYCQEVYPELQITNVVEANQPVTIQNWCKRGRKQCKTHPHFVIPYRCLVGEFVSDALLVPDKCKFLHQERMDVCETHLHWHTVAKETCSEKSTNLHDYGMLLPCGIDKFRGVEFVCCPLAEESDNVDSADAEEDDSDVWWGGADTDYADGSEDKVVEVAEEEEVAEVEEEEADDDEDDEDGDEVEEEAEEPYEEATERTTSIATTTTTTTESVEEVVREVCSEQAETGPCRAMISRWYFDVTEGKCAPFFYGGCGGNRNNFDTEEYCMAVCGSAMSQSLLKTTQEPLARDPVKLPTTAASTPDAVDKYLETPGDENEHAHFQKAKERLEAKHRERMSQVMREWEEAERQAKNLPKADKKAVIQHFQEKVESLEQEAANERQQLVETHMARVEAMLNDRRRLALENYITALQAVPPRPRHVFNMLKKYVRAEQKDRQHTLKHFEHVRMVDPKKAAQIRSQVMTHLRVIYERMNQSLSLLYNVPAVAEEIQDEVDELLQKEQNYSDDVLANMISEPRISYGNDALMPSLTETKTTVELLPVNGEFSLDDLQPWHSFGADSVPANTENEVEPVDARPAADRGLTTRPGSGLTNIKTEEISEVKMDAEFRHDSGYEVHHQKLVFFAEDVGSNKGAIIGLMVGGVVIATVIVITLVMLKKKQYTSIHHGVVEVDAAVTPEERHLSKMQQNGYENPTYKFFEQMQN
T2 sequence (P22303 whole entry): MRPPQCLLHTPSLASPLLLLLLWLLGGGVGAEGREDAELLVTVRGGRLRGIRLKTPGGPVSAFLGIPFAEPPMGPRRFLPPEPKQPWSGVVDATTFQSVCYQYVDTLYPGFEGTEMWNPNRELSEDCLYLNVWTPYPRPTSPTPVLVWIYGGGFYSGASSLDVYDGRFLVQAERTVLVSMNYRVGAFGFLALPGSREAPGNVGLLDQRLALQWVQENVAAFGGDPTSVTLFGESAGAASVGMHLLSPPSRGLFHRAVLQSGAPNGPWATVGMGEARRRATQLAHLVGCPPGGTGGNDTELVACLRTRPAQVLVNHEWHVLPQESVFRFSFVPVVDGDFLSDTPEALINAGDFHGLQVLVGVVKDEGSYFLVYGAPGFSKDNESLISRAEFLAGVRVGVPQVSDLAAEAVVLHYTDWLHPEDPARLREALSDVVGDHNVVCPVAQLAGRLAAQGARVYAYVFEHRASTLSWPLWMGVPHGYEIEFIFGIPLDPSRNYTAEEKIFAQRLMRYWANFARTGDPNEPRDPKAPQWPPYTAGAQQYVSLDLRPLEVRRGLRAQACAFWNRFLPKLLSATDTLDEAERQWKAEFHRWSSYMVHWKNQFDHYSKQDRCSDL

| Structure (SMILES) | inhibition [7] | Activity [8] | IC50 [9] | IC50 [10] | further results |
| --- | --- | --- | --- | --- | --- |
| CCN(C)C(=O)Oc1cccc([C@H](C)N(C)C)c1 [RIVASTIGMINE] |  |  |  |  | Activity [1]: 58.3%; Activity [2]: 81.4%; Activity [3]: 43.2%; Activity [4]: inactive; Activity [5]: 64.6%; Activity [6]: 43.2% |
| CCN(CC)C(=O)Oc1ccc(-c2cc(=O)c3c(O)cc(OC(=O)N(CC)CC)cc3o2)cc1 | 77.8% | 1.2 equiv | 7.8 µM | 16.4 µM |  |
| COc1cc(/C=C/C(=O)CC(=O)/C=C/c2ccc(O)c(OC)c2)ccc1O |  |  |  |  | Activity [11]: Active; Activity [12]: 56.1%; inhibition [13]: Active; inhibition [14]: 53.6% |
| CON(C)C(=O)Oc1ccc(-c2cc(=O)c3c(O)cc(OC(=O)N(C)OC)cc3o2)cc1 | 76.8% | 1.1 equiv | 6.8 µM | 17.2 µM | IC50 [15]: 22.6 µM; IC50 [16]: 10.2 µM |
| O=C(Oc1ccc(-c2cc(=O)c3c(O)cc(OC(=O)N4CCCC4)cc3o2)cc1)N1CCCC1 | 73.7% | 1.2 equiv | 13.7 µM | 26.9 µM |  |
| CCN(C)C(=O)Oc1ccc(-c2cc(=O)c3c(OC(=O)N(C)CC)cc(OC(=O)N(C)CC)cc3o2)cc1 | 35.1% | 0.1 equiv | 5.1 µM | 16.2 µM | Activity [17]: inactive; IC50 [15]: 19.5 µM; Drug metabolism [18]: Metabolite_Detected; Activity [19]: Active; Activity [20]: Non-Toxic; Activity [21]: inactive; Activity [22]: 40.6%; viability at 72 h, 50 µM [23]: 69.2%; Activity [24]: inactive; viability at 72 h, 12.5 µM [25]: 98.5%; inhibition [26]: Active; viability at 72 h, 6.25 µM [27]: 98%; Activity [28]: inactive; Drug metabolism [29]: Metabolite_Detected; Papp at 100 ug/ml [30]: 19.2 ×10⁻⁶ cm/s; viability at 10 µM [31]: 62.7%; viability at 72 h, 25 µM [32]: 89.8%; IC50 [16]: 9.2 µM; Drug metabolism [33]: Metabolite_Detected |
| O=c1cc(-c2ccc(O)cc2)oc2cc(O)cc(O)c12 [APIGENIN] |  | 5.2 equiv | > 500 µM | > 500 µM | Papp at 100 ug/ml [30]: 1.68 ×10⁻⁶ cm/s |
| O=C(Oc1ccc(-c2cc(=O)c3c(O)cc(OC(=O)N(c4ccccc4)c4ccccc4)cc3o2)cc1)N(c1ccccc1)c1ccccc1 | 70.9% | 1 equiv | 31.9 µM | 37.6 µM |  |
| COc1cc2c(cc1OC)C(=O)C(CC1CCN(Cc3ccccc3)CC1)C2 (stereo not given) [DONEPEZIL] |  |  |  |  | Activity [34]: 1.91 millimeter/sec; Activity [35]: 6361 mm; Activity [3]: 60.3%; Activity [36]: 49.6%; Efficacy [37]: 55%; Efficacy [38]: 66% |
| CON(C)C(=O)Oc1ccc(-c2cc(=O)c3c(OC(=O)N(C)OC)cc(OC(=O)N(C)OC)cc3o2)cc1 | 36% | 0.2 equiv | 6 µM | 18.2 µM | IC50 [15]: 24.3 µM; IC50 [16]: 12.7 µM |
| Cc1c(C)c2c(c(C)c1O)CCC(C)(C(=O)O)O2 (stereo not given) [TROLOX] |  |  |  |  | Activity [39]: 68.8%; Activity [40]: Active |
| CN(C)C(=O)Oc1ccc(-c2cc(=O)c3c(O)cc(OC(=O)N(C)C)cc3o2)cc1 | 79.2% | 1.1 equiv | 9.2 µM | 23.7 µM |  |
| O=C(Oc1ccc(-c2cc(=O)c3c(O)cc(OC(=O)N4CCOCC4)cc3o2)cc1)N1CCOCC1 | 71.5% | 1.1 equiv | 11.5 µM | 18.6 µM |  |
| CN(C)C(=O)Oc1ccc(-c2cc(=O)c3c(OC(=O)N(C)C)cc(OC(=O)N(C)C)cc3o2)cc1 | 38.3% | 0.2 equiv | 8.3 µM | 23.1 µM |  |
| O=C(Oc1ccc(-c2cc(=O)c3c(OC(=O)N4CCOCC4)cc(OC(=O)N4CCOCC4)cc3o2)cc1)N1CCOCC1 | 31.2% | 0.2 equiv | 10.2 µM | 23.8 µM |  |
